Measurements reported in publication PMC4401082 (European journal of medicinal chemistry, 2014).

Columns and labels:
[1] = molecular target: T1, oCOX-1 (ovine cyclooxygenase-1) (Ovis aries, UniProt P05979); assay: [[…]-14C]-arachidonic acid TLC COX activity assay with purified enzyme; type: biochemical
T1 sequence (P05979 25-600): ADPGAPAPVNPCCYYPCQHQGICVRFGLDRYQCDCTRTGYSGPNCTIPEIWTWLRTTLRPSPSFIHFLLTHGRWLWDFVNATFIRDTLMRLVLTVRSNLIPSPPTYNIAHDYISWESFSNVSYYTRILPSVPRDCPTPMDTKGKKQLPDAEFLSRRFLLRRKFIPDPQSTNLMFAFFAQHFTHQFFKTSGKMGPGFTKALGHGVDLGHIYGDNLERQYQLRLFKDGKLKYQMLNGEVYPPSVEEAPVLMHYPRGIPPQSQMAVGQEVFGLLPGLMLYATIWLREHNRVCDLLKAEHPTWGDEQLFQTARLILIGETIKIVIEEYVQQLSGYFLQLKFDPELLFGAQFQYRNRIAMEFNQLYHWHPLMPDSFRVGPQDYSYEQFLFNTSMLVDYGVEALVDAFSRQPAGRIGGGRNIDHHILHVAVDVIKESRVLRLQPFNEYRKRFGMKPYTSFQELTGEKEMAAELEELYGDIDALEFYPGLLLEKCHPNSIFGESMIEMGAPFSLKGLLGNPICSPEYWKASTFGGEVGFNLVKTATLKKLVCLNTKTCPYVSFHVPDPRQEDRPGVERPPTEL

[2] = molecular target: hCOX-1 (cyclooxygenase-1) (Homo sapiens, UniProt P23219); assay: [[…]-14C]-arachidonic acid metabolism in intact OVCAR-3 cells; type: cell-based
Chain of hCOX-1 (cyclooxygenase-1) (P23219 24-599): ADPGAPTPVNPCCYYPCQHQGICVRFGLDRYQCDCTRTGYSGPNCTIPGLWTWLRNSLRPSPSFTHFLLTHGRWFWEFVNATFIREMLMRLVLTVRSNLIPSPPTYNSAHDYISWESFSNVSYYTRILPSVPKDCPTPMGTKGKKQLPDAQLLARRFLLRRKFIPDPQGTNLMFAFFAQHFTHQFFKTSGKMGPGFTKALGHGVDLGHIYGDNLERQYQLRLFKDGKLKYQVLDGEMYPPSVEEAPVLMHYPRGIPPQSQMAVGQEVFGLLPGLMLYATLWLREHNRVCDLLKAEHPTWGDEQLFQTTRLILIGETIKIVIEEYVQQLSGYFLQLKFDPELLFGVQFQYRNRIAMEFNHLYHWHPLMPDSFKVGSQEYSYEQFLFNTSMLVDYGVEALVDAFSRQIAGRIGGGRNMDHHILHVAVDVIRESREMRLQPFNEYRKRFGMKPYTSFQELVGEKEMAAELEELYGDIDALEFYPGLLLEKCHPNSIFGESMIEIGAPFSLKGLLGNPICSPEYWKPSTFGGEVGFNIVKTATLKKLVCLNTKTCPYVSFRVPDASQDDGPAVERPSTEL

FCc1onc(-c2ccc(Cl)o2)c1-c1ccccc1 [[19F]-P6, 3-(5-chlorofuran-2-yl)-5-(fluoromethyl)-4-phenylisoxazole]
IC50 [1]: 2 µM
IC50 [2]: 1.37 µM
